Where no end group is shown, it is not given here. [ ]: non-standard residue; d: D form.
Columns and labels:
[1] = system: LHRHR-positive A2780 human ovarian carcinoma cells; assay: Cytotoxicity, modified MTT assay; assay type: cell-based
Experimental: In contrast, LHRH-BH3 peptide was not toxic in cancer cells not expressing LHRHR. Further, non-targeted Ant-BH3 peptide was toxic in both LHRHR-positive and negative cancer cells. […] Thus, the LHRH peptide specifically targets cancer cells expressing the LHRHR and facilitates the uptake of LHRH-conjugates.
Cytotoxicity of CPT, CPT-PEG, CPT-PEG-BH3, and CPT-PEG-LHRH conjugates and the combination of CPT-PEG-BH3 with CPT-PEG-LHRH conjugates was analyzed using a modified MTT assay (Minko, et al. (1998) supra) in sensitive A2780 and multidrug resistant A2780/AD human ovarian carcinoma cells.
Cytotoxicity. The cytotoxicity of drugs were assessed using a modified MTT (3-(4,5-dimethylthiazol-2-yl)-2,5-diphenyltetrazolium bromide) assay (Kunath, et al. (2000) Eur. J. Pharm. Biopharm 49:11-15; Minko, et al. (1998) J. Controlled Rel. 54:223-233; Minko, et al. (1999) J. Controlled Rel. 59:133-148; Minko, et al. (2002) Cancer Chemother. Pharmacol. 50:143-150). To measure cytotoxicity, cells were incubated in a 96-well microtiter plate with 45 different equivalent concentrations of CPT ranging from […] in a complex conjugate. Six wells were used for control cells. The duration of incubation was varied from 3 to 72 hours to find an optimal range of incubation time for each complex conjugate.

[2] = system: human ovarian carcinoma cells; assay: Cytotoxicity (IC50 dose) of Ant, Ant-BH3 peptide and DOX; assay type: cell-based; details: highest possible concentration
Experimental: By way of example, the effectiveness of a BH3 peptide ([…] SEQ ID NO:1) to increase cell death by inducing the mitochondrial dysfunction leading to necrosis was measured. BH3 peptide was delivered into human ovarian carcinoma cells by the Antennapedia (Ant) internalization sequence (Arg-Gln-Ile-lys-[…] SEQ ID NO:2). Mitochondrial function was assessed by flow cytometry analysis using the lipophilic cationic fluorescent probe 5,5′,6,6′-tetrachloro-1,1′,3,3′-tetraethylbenzimidazolcarbo-cyanine iodide (JC-1). This probe exists as a monomer, and upon excitation at 490 nm, emits light at 527 nm resulting in green fluorescence. At high mitochondrial transmembrane potential, JC-1 forms multimers, known as J-aggregates, and emits light at 590 nm upon excitation at 490 nm resulting in red fluorescence. Therefore, the red/green fluorescence ratio measured by flow cytometry reflects the number of functioning mitochondria. […] The effect of the Ant-BH3 peptide on mitochondrial transmembrane potential was also determined.
Cytotoxicity. The cytotoxicity of drugs were assessed using a modified MTT (3-(4,5-dimethylthiazol-2-yl)-2,5-diphenyltetrazolium bromide) assay (Kunath, et al. (2000) Eur. J. Pharm. Biopharm 49:11-15; Minko, et al. (1998) J. Controlled Rel. 54:223-233; Minko, et al. (1999) J. Controlled Rel. 59:133-148; Minko, et al. (2002) Cancer Chemother. Pharmacol. 50:143-150). […]

[3] = system: A2780 human ovarian carcinoma cells; assay: RT-PCR expression of caspases, APAF-1 and SMAC; assay type: cell-based; details: A2780 cells
Experimental: The effect of the LHRH-BH3 peptide on apoptosis was analyzed by measuring transcriptional and translational levels and activity of human caspases. […] Active caspase 9, in turn, activates a cascade of downstream caspases, as evidenced by increased expression levels, which subsequently leads to induction of apoptosis.
Cystein aspartate-specific proteases (caspases). Three approaches were used to analyze the role of each of the human caspases in the apoptosis induction. First, the expression of genes encoding human caspases 1-10 and the Apoptotic Protease Activating Factor (APAF-1) and Second Mitochondria-Derived Activator of Caspase (SMAC) were studied by RT-PCR (Minko, et al. (1999) supra; Minko, et al. (2000) supra). […] Therefore, in addition to the measurement of the gene expression, the amount of active caspases and activity of the enzymes was measured. The amount of active caspases was estimated by western blot analysis. The activity of expressed caspases was measured using the Caspase Protease Assay kit (MBL International, Watertown, Mass.) or a colorimetric protease assay kit (PanVera, Madison, Wis.) (Minko, et al. (2001) supra). Cells were separately incubated with the conjugates for 48 hours. The assay colormetric assay is based on the spectrophotometric detection of the chromophore p-nitroanilide (pNA) after cleavage from the substrate, X-pNA. An increase in caspase activity was determined by comparing levels in cells exposed to conjugates to levels in cells of the untreated control incubated with saline.
Gene expression. A combination of reverse transcription (RT) and polymerase chain reaction (PCR) was used for the analysis of gene expression as described (Minko, et al. (1999) J. Controlled Rel. 59:133-148). Briefly, total cellular RNA was isolated using an RNeasy kit (QIAGEN,™, Valencia, Calif.) and a […]™ micro-spin homogenizer (QIAGEN). First-strand cDNA was synthesized by Ready-To-Go You-Prime First-Strand Beads (Amersham Biosciences, Piscataway, N.J.) according to the manufacturer's instructions with 2 μg of total cellular RNA (from 1×10^7 cells) and 100 ng of random hexadeoxynucleotide primer (Amersham Biosciences, Piscataway, N.J.). After synthesis, the reaction mixture was diluted 1:3 with water and immediately subjected to PCR, which was carried out using GenAmp PCR System 2400 (Perkin Elmer Instruments, Shelton, Conn.). The pairs of primers used to amplify each type of cDNA and PCR regimes are well-known in the art (Kunath, et al. (2000) supra; Minko, et al. (2003) supra; Minko, et al. (2002) supra; Minko, et al. (1999) supra; Minko, et al. (2000) supra; Minko, et al. (2001) supra). PCR products were separated in 4% NUSIEVE® 3:1 RELIANT® agarose gels (BMA, East Rutherford, N.J.) in 1×TBE buffer (0.089 M Tris/Borate, 0.002 M EDTA, pH 8.3) by submarine electrophoresis. The gels were stained with ethidium bromide and digitally photographed. To calculate the size and amount of PCR products, a Low DNA Mass ladder (GibcoBRL, Carlsbad, Calif.) was used. β2-microglobulin was used as an internal standard and to confirm the efficacy of PCR (Kunath, et al. (2000) supra; Minko, et al. (2001) supra).

LHRH receptor = biological target: T1, LHRH receptor (human, UniProt P30968 1-328); assay: cell-based or functional assay
T1 sequence (looked up): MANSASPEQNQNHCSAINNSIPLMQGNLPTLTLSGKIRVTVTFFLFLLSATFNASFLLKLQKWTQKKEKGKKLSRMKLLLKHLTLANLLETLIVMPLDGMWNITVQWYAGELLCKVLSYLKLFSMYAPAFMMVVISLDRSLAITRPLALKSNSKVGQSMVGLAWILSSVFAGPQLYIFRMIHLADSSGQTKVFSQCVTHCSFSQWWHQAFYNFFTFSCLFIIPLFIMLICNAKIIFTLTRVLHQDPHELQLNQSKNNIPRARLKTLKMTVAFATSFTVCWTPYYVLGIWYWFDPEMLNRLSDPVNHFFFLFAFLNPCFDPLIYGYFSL

Molecule: CCNC(=O)[C@@H]1CCCN1C(=O)[C@H](CCCNC(=N)N)NC(=O)[C@H](CC(C)C)NC(=O)[C@@H](CCCCN)NC(=O)[C@H](Cc1ccc(O)cc1)NC(=O)[C@H](CO)NC(=O)[C@H](Cc1c[nH]c2ccccc12)NC(=O)[C@H](Cc1c[nH]cn1)NC(=O)[C@@H]1CCC(=O)N1 [LHRH peptide, LHRH-Lys^6-des-Gly^10-Pro^9-ethylamide, reference compound]
- toxicity ([1]; LHRHR-positive cancer cells, up to the highest possible concentration): did not have any significant toxicity

Molecule: Arg-Gln-Ile-lys-Ile-Trp-Phe-Gln-Asn-Arg-Arg-Met-Lys-Trp-Lys-Lys (RQIKIWFQNRRMKWKK; Antennapedia internalization peptide)
- concentration up to which not toxic [2]: > 1 mg/mL

Molecule: Met-Gly-Gln-Val-Gly-Arg-Gln-Leu-Ala-Ile-Ile-Gly-Asp-Asp-Ile-Asn-Arg-Arg-Tyr (MGQVGRQLAIIGDDINRRY; Synthetic BH3 domain peptide) [BH3 peptide]
- concentration up to which not toxic ([1]; A2780, maximal possible concentration limited by solubility): > 1 mg/mL
- expression of caspases 1, 4, and 5 [3]: not expressed

B1: LHRH-Lys^6-des-Gly^10-Pro^9-ethylamide (active analog of the LHRH peptide) (peptide)
peptide: QHWSY[dK]LRP-NHEt
modifications: ends and bridges not checked
- concentration of LHRH that decreased cytotoxicity of LHRH-BH3 peptide by 50% (EC50 dose of LHRH peptide), A2780 cells (LHRH receptor): 7.3e-05 ng/mL

B2: LHRH-BH3 peptide (peptide)
peptide 1: QHWSY[dK]LRP-NHEt
peptide 2: MGQVGRQLAIIGDDINRRY
modifications: ends and bridges not checked; also: LHRH analog and BH3 peptide are joined, the linkage is not given here
- cytotoxicity IC50 (modified MTT assay), LHRHR-positive A2780 human ovarian cancer cells (LHRH receptor): 3.97 ng/mL
- toxicity in MCF-7 cells (LHRHR expression 1.6-fold less) relative to toxicity in A2780 cells, fold less (LHRH receptor): 10 fold
- toxicity in PC-3 cells (LHRHR expression 3.2-fold less) relative to toxicity in A2780 cells, fold less (LHRH receptor): 100 fold

Source: patent US8124051B2, “Complex drug delivery composition and method for treating cancer” (priority 2003, dated 2012)
